Source: patent US20230365537A1, “POLO LIKE KINASE 4 INHIBITORS” (ORIC Pharmaceuticals, Inc., priority 2021, published 2023)
pIC50: −log10 of the molar value.

Experiments:
[1] = molecular target: human recombinant Aurora B (Homo sapiens (Human), UniProt Q96GD4); experiment: Aurora B Kinase Biochemical Assay (ADP-Glo); conditions: ratio of Aurora B IC50 to PLK4 IC50 (selectivity)
Method in brief: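 IC50 derived by four-parameter nonlinear fit of ADP-Glo luminescence (ADP produced). Compound was preincubated 15 min at RT with 20 nM recombinant human Aurora B, in 50 mM HEPES pH 7.5, 10 mM MgCl2, 1 mM EGTA, 1 mM DTT, 0.01% Brij-35/BSA.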

[2] = system: CHP-134 cells; experiment: CHP134 CellTiter-Glo (CTG) Assay; format: cell-based; conditions: Homo sapiens, CHP-134, 120 h, 5 days, viable cells by CellTiter-Glo
Method in brief: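 Nine-point 1:3 dilution series, diluted into growth media, added in quadruplicate to CHP-134 cells plated 16 h earlier at 200 cells/well.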

[3] = molecular target: human recombinant PLK4 (Homo sapiens (Human), UniProt O00444); experiment: PLK4 Biochemical Assay (ADP-Glo); conditions: 0.5 nM PLK4, 8.0 µM ATP, 4.7 µM MBP, 6 hours at RT
Method in brief: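 Luminescent ADP-Glo detection quantified ADP production, with ATP depletion for 40 min and detection for 30 min at room temperature. Compound and PLK4 (1.0 nM stock addition) were preincubated 15 min in HEPES pH 7.5 buffer containing MgCl2, EGTA, DTT, Brij-35 and BSA. IC50 values were obtained by four-parameter nonlinear regression.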

[4] = molecular target: human recombinant Aurora A (Homo sapiens (Human), UniProt O14965); experiment: Aurora A Kinase Biochemical Assay (ADP-Glo); conditions: ratio of Aurora A IC50 to PLK4 IC50 (selectivity)
Chain of human recombinant Aurora A (O14965 whole entry): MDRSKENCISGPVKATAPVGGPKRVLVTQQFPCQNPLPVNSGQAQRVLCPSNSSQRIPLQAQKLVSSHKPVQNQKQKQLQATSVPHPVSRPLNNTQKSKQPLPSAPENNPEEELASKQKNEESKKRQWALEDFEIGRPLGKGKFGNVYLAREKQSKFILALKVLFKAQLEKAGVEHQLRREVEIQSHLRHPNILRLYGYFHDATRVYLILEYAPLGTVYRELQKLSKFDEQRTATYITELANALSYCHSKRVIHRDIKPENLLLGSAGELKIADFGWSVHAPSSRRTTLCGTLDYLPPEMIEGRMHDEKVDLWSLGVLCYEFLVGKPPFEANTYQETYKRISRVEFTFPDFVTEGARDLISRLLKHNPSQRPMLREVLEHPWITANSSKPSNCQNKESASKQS

Chain of human recombinant PLK4 (O00444 whole entry): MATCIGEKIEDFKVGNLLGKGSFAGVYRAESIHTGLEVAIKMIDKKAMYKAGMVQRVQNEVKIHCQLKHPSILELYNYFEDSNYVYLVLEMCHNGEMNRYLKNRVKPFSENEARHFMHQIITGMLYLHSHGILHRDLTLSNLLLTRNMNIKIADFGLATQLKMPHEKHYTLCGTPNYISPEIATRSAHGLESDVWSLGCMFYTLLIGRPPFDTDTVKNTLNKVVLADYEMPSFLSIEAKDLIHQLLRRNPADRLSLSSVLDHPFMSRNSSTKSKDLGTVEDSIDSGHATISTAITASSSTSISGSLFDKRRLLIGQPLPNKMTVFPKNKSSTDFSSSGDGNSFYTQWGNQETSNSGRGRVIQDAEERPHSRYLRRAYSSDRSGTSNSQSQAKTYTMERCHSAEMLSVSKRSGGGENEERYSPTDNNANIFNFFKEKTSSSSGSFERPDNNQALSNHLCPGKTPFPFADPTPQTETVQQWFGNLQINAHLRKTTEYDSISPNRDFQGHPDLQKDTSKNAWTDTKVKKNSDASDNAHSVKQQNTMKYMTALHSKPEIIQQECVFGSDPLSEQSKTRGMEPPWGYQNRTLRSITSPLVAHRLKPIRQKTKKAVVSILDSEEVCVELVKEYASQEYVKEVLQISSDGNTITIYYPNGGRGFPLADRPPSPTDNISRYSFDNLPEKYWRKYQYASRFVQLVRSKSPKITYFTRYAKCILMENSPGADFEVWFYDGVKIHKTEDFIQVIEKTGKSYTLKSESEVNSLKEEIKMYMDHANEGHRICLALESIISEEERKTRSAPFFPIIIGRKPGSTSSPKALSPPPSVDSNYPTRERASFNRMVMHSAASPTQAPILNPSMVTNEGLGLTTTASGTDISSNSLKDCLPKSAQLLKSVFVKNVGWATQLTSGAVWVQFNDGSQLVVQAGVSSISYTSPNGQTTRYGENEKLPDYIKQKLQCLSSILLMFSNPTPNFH
Chain of human recombinant Aurora B (Q96GD4 whole entry): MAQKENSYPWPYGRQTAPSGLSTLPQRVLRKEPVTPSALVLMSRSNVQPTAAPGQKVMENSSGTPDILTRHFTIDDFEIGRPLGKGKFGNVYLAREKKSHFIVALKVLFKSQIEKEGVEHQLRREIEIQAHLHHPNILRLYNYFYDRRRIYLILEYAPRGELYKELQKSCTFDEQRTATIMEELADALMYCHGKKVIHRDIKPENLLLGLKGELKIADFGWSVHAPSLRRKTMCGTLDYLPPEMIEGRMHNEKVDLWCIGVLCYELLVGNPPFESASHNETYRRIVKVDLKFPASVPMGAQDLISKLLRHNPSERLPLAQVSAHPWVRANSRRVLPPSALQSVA

[Aurora B IC50 (nM)]/[PLK4 IC50 (nM)] [1]	pIC50 [3]	[Aurora A IC50 (nM)]/[PLK4 IC50 (nM)] [4]	SMILES	pIC50 [2]
202.96	8.39	324.94	COc1ccc2c(c1)[C@]1(C[C@H]1c1ccc3c(Nc4nc(C#N)ncc4OC)n[nH]c3c1)C(=O)N2 [Example 172, 5-methoxy-4-({6-[(1R,2S)-5′-methoxy-2′-oxo-1′,2′-dihydrospiro[cyclopropane-1,3′-indol]-2-yl]-1H-indazol-3-yl}amino)pyrimidine-2-carbonitrile]	5.90
314.9287	8.57	301.0878	COc1ccc2c(c1)[C@]1(C[C@H]1c1ccc3c(Nc4nc(N5CC(F)(F)C5)ncc4OC)n[nH]c3c1)C(=O)N2 [Example 173, (1R,2S)-2-(3-([2-(3,3-difluoroazetidin-1-yl)-5-methoxypyrimidin-4-yl]amino}-1H-indazol-6-yl)-5′-methoxyspiro[cyclopropane-1,3′-indol]-2′(1 ‘H)-one]	6.48
353.7741	8.72	365.8511	COc1ccc2c(c1)[C@]1(C[C@H]1c1ccc3c(Nc4nc(N5CC(F)C5)ncc4OC)n[nH]c3c1)C(=O)N2 [Example 174, (1R,2S)-2-(3-{[2-(3-fluoroazetidin-1-yl)-5-methoxypyrimidin-4-yl]amino}-1H-indazol-6-yl)-5′-methoxyspiro[cyclopropane-1,3′-indol]-2′(1′H)-one]	6.41
8627.0664	8.45	14009.5265	CCS(=O)(=O)c1ccc(OC)c(Nc2n[nH]c3cc([C@@H]4C[C@@]45C(=O)Nc4ccc(OC)cc45)ccc23)c1 [Example 175, (1R,2S)-2-{3-[5-(ethanesulfonyl)-2-methoxyanilino]-1H-indazol-6-yl}-5′-methoxyspiro[cyclopropane-1,3′-indol]-2′(1′H)-one]	5.66
1300.3869	8.55	1725.2902	COc1ccc2c(c1)[C@]1(C[C@H]1c1ccc3c(Nc4cc(C(=O)N(C)C)ccc4OC)n[nH]c3c1)C(=O)N2 [Example 176, 4-methoxy-3-({6-[(1R,2S)-5′-methoxy-2′-oxo-1′,2′-dihydrospiro[cyclopropane-1,3′-indol]-2-yl]-1H-indazol-3-yl}amino)-N,N-dimethylbenzamide]	5.81
11750.8813	8.37	11750.8813	CNC(=O)c1ccc(OC)c(Nc2n[nH]c3cc([C@@H]4C[C@@]45C(=O)Nc4ccc(OC)cc45)ccc23)c1 [Example 177, 4-methoxy-3-({6-[(1R,2S)-5′-methoxy-2′-oxo-1′,2′-dihydrospiro[cyclopropane-1,3′-indol]-2-yl]-1H-indazol-3-yl}amino)-N-methylbenzamide]	5.43
15179.1135	8.48	15179.1135	COc1ccc2c(c1)[C@]1(C[C@H]1c1ccc3c(Nc4cc(S(=O)(=O)C(C)C)ccc4OC)n[nH]c3c1)C(=O)N2 [Example 178, (1R,2S)-5′-methoxy-2-{3-[2-methoxy-5-(propane-2-sulfonyl)anilino]-1H-indazol-6-yl}spiro[cyclopropane-1,3′-indol]-2′(1′H)-one]	6.20
5384.4135	8.42	13119.9160	COc1ccc2c(c1)[C@]1(C[C@H]1c1ccc3c(Nc4cc(S(=O)(=O)N(C)C)ccc4OC)n[nH]c3c1)C(=O)N2 [Example 179, 4-methoxy-3-({6-[(1R,2S)-5′-methoxy-2′-oxo-1′,2′-dihydrospiro[cyclopropane-1,3′-indol]-2-yl]-1H-indazol-3-yl}amino)-N,N-dimethylbenzene-1-sulfonamide]	6.02
1996.8465	8.54	5455.5011	COc1ccc2c(c1)[C@]1(C[C@H]1c1ccc3c(Nc4cc(C(=O)N5CCOCC5)ccc4OC)n[nH]c3c1)C(=O)N2 [Example 180, (1R,2S)-5′-methoxy-2-{3-[2-methoxy-5-(morpholine-4-carbonyl)anilino]-1H-indazol-6-yl}spiro[cyclopropane-1,3′-indol]-2′(1′H)-one]	6.13
322.5703	8.90	534.2169	COc1ccc2c(c1)[C@]1(C[C@H]1c1ccc3c(Nc4ccc(C(=O)N5CCOCC5)nc4OC)n[nH]c3c1)C(=O)N2 [Example 183, (1R,2S)-5′-methoxy-2-(3-{[2-methoxy-6-(morpholine-4-carbonyl)pyridin-3-yl]amino}-1H-indazol-6-yl)spiro(cyclopropane-1,3′-indol]-2′(1′H)-one]	6.90
7144.8985	8.16	7144.8985	COc1ccc2c(c1)[C@]1(C[C@H]1c1ccc3c(Nc4ccc(C(=O)N5CC(F)(F)C5)nc4OC)n[nH]c3c1)C(=O)N2 [Example 184, (1R,2S)-2-(3-{[6-(3,3-difluoroazetidine-1-carbonyl)-2-methoxypyridin-3-yl]amino}-1H-indazol-6-yl)-5′-methoxyspiro[cyclopropane-1,3′-indol]-2′(1′H)-one]	6.05
180.1636	8.71	3240.7975	COc1ccc2c(c1)[C@]1(C[C@H]1c1ccc3c(Nc4ccc(C(=O)N5CCC(F)(F)CC5)nc4OC)n[nH]c3c1)C(=O)N2 [Example 185, (1R,2S)-2-(3-{[6-(4,4-difluoropiperidine-1-carbonyl)-2-methoxypyridin-3-yl]amino}-1H-indazol-6-yl)-5′-methoxyspiro[cyclopropane-1,3′-indol]-2′(1′H)-one]	6.87
232.5464	8.75	641.9337	COc1ccc2c(c1)[C@]1(C[C@H]1c1cc(F)c3c(Nc4nc(SC)ncc4OC)n[nH]c3c1)C(=O)N2 [Example 186, (1R,2S)-2-(4-fluoro-3-{[5-methoxy-2-(methylsulfanyl)pyrimidin-4-yl]amino}-1H-indazol-6-yl)-5′-methoxyspiro[cyclopropane-1,3′-indol]-2′(1′H)-one]	6.27
112.2793	8.21	109.5814	COc1ccc2c(c1)[C@]1(C[C@H]1c1ccc3c(Nc4nc(OC)ncc4C)n[nH]c3c1)C(=O)N2 [Example 187, (1R,2S)-5′-methoxy-2-{3-[(2-methoxy-5-methylpyrimidin-4-yl)amino]-1H-indazol-6-yl}spiro[cyclopropane-1,3′-indol]-2′(1′H)-one]	6.25
191.7065	8.20	7974.4817	COc1ccc2c(c1)[C@]1(C[C@H]1c1ccc3c(Nc4ccc(C(=O)N5CC6(COC6)C5)nc4OC)n[nH]c3c1)C(=O)N2 [Example 188, (1R,2S)-5′-methoxy-2-(3-{[2-methoxy-6-(2-oxa-6-azaspiro[3.3]heptane-6-carbonyl)pyridin-3-yl]amino}-1H-indazol-6-yl)spiro[cyclopropane-1,3′-indol]-2′(1′H)-one]	6.12
514.5455	8.98	383.7321	COc1ccc2c(c1)[C@]1(C[C@H]1c1ccc3c(Nc4nc(N5CCC(F)(F)CC5)ncc4OC)n[nH]c3c1)C(=O)N2 [Example 189, (1R,2S)-2-(3-{[2-(4,4-difluornpiperidin-1-yl)-5-methoiypyrimidin-4-yl]amino}-1H-indazol-6-yl)-5′-methoxyspiro[cyclopropane-1,3′-indol]-2′(1′H)-one]	6.95
279.1432	8.57	129.5378	COc1ccc2c(c1)[C@]1(C[C@H]1c1ccc3c(Nc4nc(N5CCS(=O)(=O)CC5)ncc4OC)n[nH]c3c1)C(=O)N2 [Example 190, 4-[5-methoxy-4-({6-[(1R,2S)-5′-methoxy-2′-oxo-1′,2′-dihydrospiro[cyclopropane-1,3′-indol]-2-yl]-1H-indazol-3-yl}amino)pyrimidin-2-yl]-1λ6-thiomorpholine-1,1-dione]	5.29
84.9956	8.64	2416.5931	CNC(=O)c1ccc(Nc2n[nH]c3cc([C@@H]4C[C@@]45C(=O)Nc4ccc(OC)cc45)ccc23)c(OC)n1 [Example 191, 6-methoxy-5-({6-[(1R,2S)-5′-methoxy-2′-oxo-1′,2′-dihydrospiro[cyclopropane-1,3′-indol]-2-yl]-1H-indazol-3-yl}amino)-N-methylpyridine-2-carboxamide]	6.31
